Columns and labels:
24-HC in the brain = assay: Quantification test of 24-HC in mouse brain after repeated oral administration; assay type: in vivo; details: 30 mg/kg orally once a day for 3 days, female C57BL/6N mice, brain 24-HC at 16 hours after the third administration, relative to control group, read-out: Decreasing Rate in 30 mg/kg (%)
Description: Animals used were 6-week-old female C57BL/6N mice (3 mice/group). A test compound was suspended in a 0.5% aqueous methylcellulose [133-14255 WAKO] solution (1 mg/mL). The body weight of the mice was measured, and the solution was forcibly administered orally and repeatedly once a day for 3 days. At 16 hours after the third administration, half of the brain was harvested, and the amount of 24-HC was measured.
The wet weight of the brain was measured, and the brain was homogenized with 4-fold amount of saline. This solution was used as a brain extract. The 24-HC in the brain extract was extracted with an acetonitrile solution (98% acetonitrile, 1.98% methanol, 0.02% formic acid), and quantified by HPLC. The average value of 24-HC amount was calculated and the results are shown in relative values with the control group as 100%.

human CH24H = target: T1, human CH24H (Homo sapiens, UniProt Q9Y6A2); assay: Measurement of CH24H inhibitory activity (24-HC produced from [14C] cholesterol by human CH24H lysate); assay type: biochemical; details: 1 μM test compound, [14C] cholesterol 15 μM, 37° C. for 5 hr, read-out: Inhibitory Rate in 1 μM (%)
T1 construct: Using Full-Length Mammalian Gene Collection No. 4819975 (Invitrogen) as a template; made in house; host or cells: FreeStyle 293-F cells, transient transfection with pcDNA3.1(+)/hCH24H; lysate supernatant, not purified
T1 sequence (Q9Y6A2 whole entry): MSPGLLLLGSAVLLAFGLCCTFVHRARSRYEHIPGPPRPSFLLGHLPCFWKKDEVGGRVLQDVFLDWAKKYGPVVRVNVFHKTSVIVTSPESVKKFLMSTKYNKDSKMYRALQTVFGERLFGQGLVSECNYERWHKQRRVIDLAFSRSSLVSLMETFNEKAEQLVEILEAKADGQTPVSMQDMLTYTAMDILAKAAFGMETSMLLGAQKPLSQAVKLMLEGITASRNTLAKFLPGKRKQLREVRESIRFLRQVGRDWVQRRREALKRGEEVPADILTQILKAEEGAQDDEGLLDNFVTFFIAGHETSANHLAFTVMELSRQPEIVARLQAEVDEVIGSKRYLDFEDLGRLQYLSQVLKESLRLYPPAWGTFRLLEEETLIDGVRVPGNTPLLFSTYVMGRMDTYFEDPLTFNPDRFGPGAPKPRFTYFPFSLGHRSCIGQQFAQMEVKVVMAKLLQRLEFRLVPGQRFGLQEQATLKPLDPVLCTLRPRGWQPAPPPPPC
Description: The expression of human CH24H was performed using FreeStyle 293 Expression System (Invitrogen). […] After transfection, the cells were cultured at 37° C., 8% CO2 with shaking at 125 rpm for 2 days. The cells were collected by centrifugation, and suspended in a suspension buffer (100 mM potassium phosphate (pH 7.4), 0.1 mM EDTA, 1 mM DTT, 20% Glycerol). The suspended product was disrupted by a polytron homogenizer (manufactured by Kinematica), and centrifuged at 9000×g for 10 min, and the supernatant was collected. The collected supernatant was cryopreserved (−80° C.) as a human CH24H lysate standard product.
For the measurement of CH24H inhibitory activity, using the human CH24H lysate prepared in Experimental Example 2, the amount of 24-HC produced from cholesterol by catalytic activity of CH24H was measured in the presence of a test compound, and compared with that measured in the absence of the test compound. That is, a test compound solution at various concentrations was mixed with a reaction buffer (50 mM potassium phosphate containing 0.1% BSA and Complete, EDTA-free, pH 7.4) and human CH24H lysate. Then, [^14C] cholesterol (53 mCi/mmol specific activity, 15 μM) was added, and CH24H reaction was performed at 37° C. for 5 hr. After completion of the reaction, a quenching solution consisting of chloroform/methanol/distilled water (2:2:1 v/v) was added, and the resulting 24-HC was extracted by shaking. The extract was applied to silica gel thin layer chromatography (ethyl acetate:toluene=4:6), and the obtained ^14C-24HC fraction was measured with BAS2500 (Fujifilm Corporation).
The inhibitory rate (%) was calculated from the ratio of radioactivity in the presence of a test compound relative to the radioactivity in the absence of the test compound.

inhibition at 1 µM (human CH24H) | Compound | inhibition in vivo at 30 mg/kg (24-HC in the brain)
96% | N#C[C@H]1CCCN1C(=O)C1CCN(c2cnccc2-n2cc(Cl)cn2)CC1 [Example 33, (2R)-1-((1-(4-(4-chloro-1H-pyrazol-1-yl)pyridin-3-yl)piperidin-4-yl)carbonyl)pyrrolidine-2-carbonitrile] | 49%
87% | COC[C@H]1CCCN1C(=O)C1CCN(c2cnccc2-c2nnc(C)s2)CC1 [Example 133, ((2R)-2-(methoxymethyl)pyrrolidin-1-yl)(1-(4-(5-methyl-1,3,4-thiadiazol-2-yl)pyridin-3-yl)piperidin-4-yl)methanone] | 70%
82% | Cc1cnc(-c2ccncc2N2CCC(C(=O)N3CCC[C@@H]3C#N)CC2)s1 [Example 129, (2R)-1-((1-(4-(5-methyl-1,3-thiazol-2-yl)pyridin-3-yl)piperidin-4-yl)carbonyl)pyrrolidine-2-carbonitrile] | 44%
87% | Cc1nnc(-c2ccncc2N2CCC(C(=O)N3CC(F)(F)C[C@@H]3C#N)CC2)s1 [Example 132, (2R)-4,4-difluoro-1-((1-(4-(5-methyl-1,3,4-thiadiazol-2-yl)pyridin-3-yl)piperidin-4-yl)carbonyl)pyrrolidine-2-carbonitrile] | 65%
81% | Cc1cnn(-c2ccncc2N2CCC(C(=O)N3CCC[C@@H]3C(N)=O)CC2)c1 [Example 124, 1-((1-(4-(4-methyl-1H-pyrazol-1-yl)pyridin-3-yl)piperidin-4-yl)carbonyl)-D-prolinamide] | 59%
94% | Cc1cnc(-c2ccncc2N2CCC(C(=O)N3CC[C@H](F)C3)CC2)s1 [Example 316, ((3S)-3-fluoropyrrolidin-1-yl)(1-(4-(5-methyl-1,3-thiazol-2-yl)pyridin-3-yl)piperidin-4-yl)methanone] | 
86% | CO[C@@H]1CCN(C(=O)C2CCN(c3cncnc3-c3ccc(F)cc3)CC2)C1 [Example 304, (1-(4-(4-fluorophenyl)pyrimidin-5-yl)piperidin-4-yl)((3R)-3-methoxypyrrolidin-1-yl)methanone] | 
93% | N#C[C@H]1CCCN1C(=O)C1CCN(c2cnccc2-c2ccccn2)CC1 [Example 142, (2R)-1-((1-(2,4′-bipyridine-3′-yl)piperidin-4-yl)carbonyl)pyrrolidine-2-carbonitrile] | 69%
93% | Cc1cnn(-c2ccncc2N2CCC(C(=O)N3CC(F)(F)C[C@@H]3C#N)CC2)c1 [Example 130, (2R)-4,4-difluoro-1-((1-(4-(4-methyl-1H-pyrazol-1-yl)pyridin-3-yl)piperidin-4-yl)carbonyl)pyrrolidine-2-carbonitrile] | 54%
94% | O=C(C1CCN(c2cnccc2-n2cc(Br)cn2)CC1)N1CC[C@H](F)C1 [Example 318, (1-(4-(4-bromo-1H-pyrazol-1-yl)pyridin-3-yl)piperidin-4-yl)((3S)-3-fluoropyrrolidin-1-yl)methanone] | 
93% | O=C(C1CCN(c2cnccc2-c2ccccn2)CC1)N1CC(F)(F)C1 [Example 213, (1-(2,4′-bipyridin-3′-yl)piperidin-4-yl) (3,3-difluoroazetidin-1-yl)methanone] | 

Continued, compound first:

Compound | inhibition at 1 µM (human CH24H) | inhibition in vivo at 30 mg/kg (24-HC in the brain)
Cc1cnn(-c2ccncc2N2CCC(C(=O)N3CCC[C@]3(C)C#N)CC2)c1 [Example 127, (2R)-2-methyl-1-((1-(4-(4-methyl-1H-pyrazol-1-yl)pyridin-3-yl)piperidin-4-yl)carbonyl)pyrrolidine-2-carbonitrile] | 79% | 44%
C[C@@H]1CN(c2cncnc2-c2ccccc2)CCN1C(=O)OCc1ccccc1 [Example 158, benzyl (2R)-2-methyl-4-(4-phenylpyrimidin-5-yl)piperazine-1-carboxylate] | 85% | 
O=C(NC1CC1)C1CCN(c2cncnc2-c2ccc(F)cc2)CC1 [Example 193, N-cyclopropyl-1-(4-(4-fluorophenyl)pyrimidin-5-yl)piperidine-4-carboxamide] | 90% | 
Cc1cn(-c2ccncc2N2CCC(C(=O)NC3CC3)CC2)nc1C [Example 200, N-cyclopropyl-1-(4-(3,4-dimethyl-1H-pyrazol-1-yl)pyridin-3-yl)piperidine-4-carboxamide] | 88% | 
CNC(=O)C1CCN(c2cnccc2-n2cc(C(F)(F)F)cn2)CC1 [Example 12, N-methyl-1-(4-(4-(trifluoromethyl)-1H-pyrazol-1-yl)pyridin-3-yl)piperidine-4-carboxamide] | 90% | 
Cc1cnn(-c2ccncc2N2CCC(C(=O)N(CCF)[C@H]3CCOC3)CC2)c1 [Example 312, N-(2-fluoroethyl)-1-(4-(4-methyl-1H-pyrazol-1-yl)pyridin-3-yl)-N-((3S)-tetrahydrofuran-3-yl)piperidine-4-carboxamide] | 71% | 
Cc1cnn(-c2ccncc2N2CCC(C(=O)N(CCF)C3CCOCC3)CC2)c1 [Example 311, N-(2-fluoroethyl)-1-(4-(4-methyl-1H-pyrazol-1-yl)pyridin-3-yl)-N-(tetrahydro-2H-pyran-4-yl)piperidine-4-carboxamide] | 79% | 
Cc1cnn(-c2ccncc2N2CCC(C(=O)N(C)[C@H]3CCOC3)CC2)c1 [Example 305, N-methyl-1-(4-(4-methyl-1H-pyrazol-1-yl)pyridin-3-yl)-N-((3S)-tetrahydrofuran-3-yl)piperidine-4-carboxamide] | 85% | 
O=C(N1CCN(c2cncnc2-c2ccccc2)CC1)N(CCF)Cc1ccccc1 [Example 314, N-benzyl-N-(2-fluoroethyl)-4-(4-phenylpyrimidin-5-yl)piperazine-1-carboxamide] | 91% | 
CO[C@@H]1CCN(C(=O)C2CCN(c3cnccc3-n3cc(C)cn3)CC2)C1 [Example 302, ((3R)-3-methoxypyrrolidin-1-yl)(1-(4-(4-methyl-1H-pyrazol-1-yl)pyridin-3-yl)piperidin-4-yl)methanone] | 87% | 
CN(C(=O)C1CCN(c2cnccc2-n2cc(Cl)cn2)CC1)[C@@H]1CCOC1 [Example 308, 1-(4-(4-chloro-1H-pyrazol-1-yl)pyridin-3-yl)-N-methyl-N-((3R)-tetrahydrofuran-3-yl)piperidine-4-carboxamide] | 83% | 
CO[C@H]1CCN(C(=O)C2CCN(c3cnccc3-n3cc(C)cn3)CC2)C1 [Example 301, ((3S)-3-methoxypyrrolidin-1-yl)(1-(4-(4-methyl-1H-pyrazol-1-yl)pyridin-3-yl)piperidin-4-yl)methanone] | 86% | 
Cc1cnn(-c2ccncc2N2CCC(C(=O)N(C)[C@@H]3CCOC3)CC2)c1 [Example 306, N-methyl-1-(4-(4-methyl-1H-pyrazol-1-yl)pyridin-3-yl)-N-((3R)-tetrahydrofuran-3-yl)piperidine-4-carboxamide] | 85% | 
Cc1cnn(-c2ccncc2N2CCC(C(=O)N(C)C3CC3)CC2)c1 [Example 86, N-cyclopropyl-N-methyl-1-(4-(4-methyl-1H-pyrazol-1-yl)pyridin-3-yl)piperidine-4-carboxamide] | 98% | 
O=C(NC1CCCC1)C1CCN(c2cnccc2-n2cc(Cl)cn2)CC1(F)F (stereo not shown) [Example 38, 1-(4-(4-chloro-1H-pyrazol-1-yl)pyridin-3-yl)-N-cyclopentyl-3,3-difluoropiperidine-4-carboxamide] | 98% | 
